From ChEMBL document CHEMBL3994622, “Design and synthesis of new RAF kinase-inhibiting antiproliferative quinoline derivatives. Part 2: Diarylurea derivatives” (Eur J Med Chem, 2017)

Tests used:
Type in all cases: functional
SR = assay: Growth inhibition of human SR cells assessed as cell growth at 0.01 uM incubated for 48 hrs by sulforhodamine B assay relative to control; settings: read-out: Activity
HOP-62 = assay: Growth inhibition of human HOP62 cells assessed as cell growth at 0.01 uM incubated for 48 hrs by sulforhodamine B assay relative to control; settings: HOP-62, 48 h, read-out: Activity
BT-549 [1] = assay: Growth inhibition of human BT549 cells assessed as cell growth at 0.01 uM incubated for 48 hrs by sulforhodamine B assay relative to control; settings: BT-549, 48 h, read-out: Activity
T47D = assay: Growth inhibition of human T47D cells assessed as cell growth at 0.01 uM incubated for 48 hrs by sulforhodamine B assay relative to control; settings: read-out: Activity
OVCAR-5 = assay: Growth inhibition of human OVCAR5 cells assessed as cell growth at 0.1 uM incubated for 48 hrs by sulforhodamine B assay relative to control; settings: OVCAR-5, 48 h, read-out: Activity
U-251 = assay: Growth inhibition of human U251 cells assessed as cell growth at 1 uM incubated for 48 hrs by sulforhodamine B assay relative to control; settings: U-251, 48 h, read-out: Activity
LOX IMVI = assay: Growth inhibition of human LOXIMVI cells assessed as cell growth at 1 uM incubated for 48 hrs by sulforhodamine B assay relative to control; settings: read-out: Activity
SK-MEL-28 [2] = assay: Growth inhibition of human SK-MEL-28 cells assessed as cell growth at 1 uM incubated for 48 hrs by sulforhodamine B assay relative to control; settings: SK-MEL-28, 48 h, read-out: Activity
MCF7 = assay: Growth inhibition of human MCF7 cells assessed as cell growth at 1 uM incubated for 48 hrs by sulforhodamine B assay relative to control; settings: MCF7, 48 h, read-out: Activity
BT-549 [3] = assay: Growth inhibition of human BT549 cells assessed as cell growth at 1 uM incubated for 48 hrs by sulforhodamine B assay relative to control; settings: BT-549, 48 h, read-out: Activity
RPMI-8226 [4] = assay: Growth inhibition of human RPMI8226 cells assessed as cell growth at 10 uM incubated for 48 hrs by sulforhodamine B assay relative to control; settings: RPMI-8226, 48 h, read-out: Activity
OVCAR-4 [5] = assay: Growth inhibition of human OVCAR4 cells assessed as cell growth at 10 uM incubated for 48 hrs by sulforhodamine B assay relative to control; settings: OVCAR-4, 48 h, read-out: Activity
CAKI-1 = assay: Growth inhibition of human Caki1 cells assessed as cell growth at 10 uM incubated for 48 hrs by sulforhodamine B assay relative to control; settings: CAKI-1, 48 h, read-out: Activity
DU-145 = assay: Growth inhibition of human DU145 cells assessed as cell growth at 10 uM incubated for 48 hrs by sulforhodamine B assay relative to control; settings: DU-145, 48 h, read-out: Activity
MOLT-4 [6] = assay: Growth inhibition of human MOLT4 cells assessed as cell growth at 100 uM incubated for 48 hrs by sulforhodamine B assay relative to control; settings: MOLT-4, 48 h, read-out: Activity
OVCAR-3 [7] = assay: Growth inhibition of human OVCAR3 cells assessed as cell growth at 100 uM incubated for 48 hrs by sulforhodamine B assay relative to control; settings: OVCAR-3, 48 h, read-out: Activity
OVCAR-4 [8] = assay: Growth inhibition of human OVCAR4 cells assessed as cell growth at 100 uM incubated for 48 hrs by sulforhodamine B assay relative to control; settings: OVCAR-4, 48 h, read-out: Activity
RXF 393 = assay: Growth inhibition of human RXF393 cells assessed as cell growth at 100 uM incubated for 48 hrs by sulforhodamine B assay relative to control; settings: RXF 393, 48 h, read-out: Activity
MOLT-4 [9] = assay: Growth inhibition of human MOLT4 cells assessed as cell growth at 0.003 uM incubated for 48 hrs by sulforhodamine B assay relative to control; settings: MOLT-4, 48 h, read-out: Activity
HCT-116 = assay: Growth inhibition of human HCT116 cells assessed as cell growth at 0.003 uM incubated for 48 hrs by sulforhodamine B assay relative to control; settings: HCT-116, 48 h, read-out: Activity
OVCAR-8 = assay: Growth inhibition of human OVCAR8 cells assessed as cell growth at 0.003 uM incubated for 48 hrs by sulforhodamine B assay relative to control; settings: OVCAR-8, 48 h, read-out: Activity
HOP-92 = assay: Growth inhibition of human HOP92 cells assessed as cell growth at 0.03 uM incubated for 48 hrs by sulforhodamine B assay relative to control; settings: HOP-92, 48 h, read-out: Activity
NCI-H460 = assay: Growth inhibition of human NCI-H460 cells assessed as cell growth at 0.03 uM incubated for 48 hrs by sulforhodamine B assay relative to control; settings: NCI-H460, 48 h, read-out: Activity
MDA-MB-231 = assay: Growth inhibition of human MDA-MB-231 cells assessed as cell growth at 0.03 uM incubated for 48 hrs by sulforhodamine B assay relative to control; settings: MDA-MB-231, 48 h, read-out: Activity
Malme-3M = assay: Growth inhibition of human MALME-3M cells assessed as cell growth at 0.3 uM incubated for 48 hrs by sulforhodamine B assay relative to control; settings: read-out: Activity
SK-MEL-28 [10] = assay: Growth inhibition of human SK-MEL-28 cells assessed as cell growth at 0.3 uM incubated for 48 hrs by sulforhodamine B assay relative to control; settings: SK-MEL-28, 48 h, read-out: Activity
MOLT-4 [11] = assay: Growth inhibition of human MOLT4 cells assessed as cell growth at 3 uM incubated for 48 hrs by sulforhodamine B assay relative to control; settings: MOLT-4, 48 h, read-out: Activity
RPMI-8226 [12] = assay: Growth inhibition of human RPMI8226 cells assessed as cell growth at 3 uM incubated for 48 hrs by sulforhodamine B assay relative to control; settings: RPMI-8226, 48 h, read-out: Activity
A549 = assay: Growth inhibition of human A549/ATCC cells assessed as cell growth at 3 uM incubated for 48 hrs by sulforhodamine B assay relative to control; settings: A549, 48 h, read-out: Activity
KM12 = assay: Growth inhibition of human KM12 cells assessed as cell growth at 3 uM incubated for 48 hrs by sulforhodamine B assay relative to control; settings: KM12, 48 h, read-out: Activity
SNB-19 = assay: Growth inhibition of human SNB19 cells assessed as cell growth at 3 uM incubated for 48 hrs by sulforhodamine B assay relative to control; settings: SNB-19, 48 h, read-out: Activity
SK-MEL-28 [13] = assay: Growth inhibition of human SK-MEL-28 cells assessed as cell growth at 3 uM incubated for 48 hrs by sulforhodamine B assay relative to control; settings: SK-MEL-28, 48 h, read-out: Activity
IGROV-1 = assay: Growth inhibition of human IGROV1 cells assessed as cell growth at 3 uM incubated for 48 hrs by sulforhodamine B assay relative to control; settings: IGROV-1, 48 h, read-out: Activity
OVCAR-3 [14] = assay: Growth inhibition of human OVCAR3 cells assessed as cell growth at 3 uM incubated for 48 hrs by sulforhodamine B assay relative to control; settings: OVCAR-3, 48 h, read-out: Activity
M14 = assay: Growth inhibition of human M14 cells assessed as cell growth at 30 uM incubated for 48 hrs by sulforhodamine B assay relative to control; settings: M14, 48 h, read-out: Activity

SMILES | growth at 0.01 µM (SR) [%] | growth at 0.01 µM (HOP-62) [%] | growth at 0.01 µM (BT-549 [1]) [%] | growth at 0.01 µM (T47D) [%] | growth at 0.1 µM (OVCAR-5) [%] | growth at 1 µM (U-251) [%] | growth at 1 µM (LOX IMVI) [%] | growth at 1 µM (SK-MEL-28 [2]) [%] | growth at 1 µM (MCF7) [%] | growth at 1 µM (BT-549 [3]) [%] | growth at 10 µM (RPMI-8226 [4]) [%] | growth at 10 µM (OVCAR-4 [5]) [%] | growth at 10 µM (CAKI-1) [%] | growth at 10 µM (DU-145) [%] | growth at 100 µM (MOLT-4 [6]) [%] | growth at 100 µM (OVCAR-3 [7]) [%] | growth at 100 µM (OVCAR-4 [8]) [%] | growth at 100 µM (RXF 393) [%] | growth at 0.003 µM (MOLT-4 [9]) [%] | growth at 0.003 µM (HCT-116) [%] | other results
COc1cc2cc(Oc3ccc(NC(=O)Nc4ccc(Cl)c(Cl)c4)cc3)c(C)nc2cc1OC | 107 | 102 | 78 | 100 | 104 | 83 | 85 | 97 | 86 | 78 | -22 | -8 | -18 | 19 | -12 | -98 | -85 | -65 |  |  | 
COc1cc2cc(Oc3ccc(NC(=O)Nc4cc(C(F)(F)F)cc(C(F)(F)F)c4)cc3)c(C)nc2cc1OC | 92 | 88 | 91 | 86 | 92 | 55 | 75 | 59 | 35 | 86 | -8 | -31 | -26 | -2 | -42 | -89 | -52 | -78 |  |  | 
COc1cc2cc(Oc3ccc(NC(=O)Nc4ccc(Cl)c(C(F)(F)F)c4)cc3)c(C)nc2cc1OC |  |  |  |  |  |  |  |  |  |  |  |  |  |  |  |  |  |  | 102 | 100 | growth at 0.003 µM (OVCAR-8): 94%; growth at 0.03 µM (HOP-92): 89%; growth at 0.03 µM (NCI-H460): 105%; growth at 0.03 µM (MDA-MB-231): 92%; growth at 0.3 µM (Malme-3M): 110%; growth at 0.3 µM (SK-MEL-28 [10]): 91%; growth at 3 µM (MOLT-4 [11]): 10%; growth at 3 µM (RPMI-8226 [12]): -36%; growth at 3 µM (A549): 10%; growth at 3 µM (KM12): 7%; growth at 3 µM (SNB-19): 24%; growth at 3 µM (SK-MEL-28 [13]): 27%; growth at 3 µM (IGROV-1): 39%; growth at 3 µM (OVCAR-3 [14]): 14%; growth at 30 µM (M14): -70%
Cc1nc2cc(O)c(O)cc2cc1Oc1ccc(NC(=O)Nc2ccc(Cl)c(Cl)c2)cc1 |  |  |  |  |  |  |  |  |  |  |  |  |  |  |  |  |  |  | 106 | 93 | growth at 0.003 µM (OVCAR-8): 98%; growth at 0.03 µM (HOP-92): 80%; growth at 0.03 µM (NCI-H460): 99%; growth at 0.03 µM (MDA-MB-231): 115%; growth at 0.3 µM (Malme-3M): 81%; growth at 0.3 µM (SK-MEL-28 [10]): 87%; growth at 3 µM (MOLT-4 [11]): 87%; growth at 3 µM (RPMI-8226 [12]): 92%; growth at 3 µM (A549): 98%; growth at 3 µM (KM12): 95%; growth at 3 µM (SNB-19): 96%; growth at 3 µM (SK-MEL-28 [13]): 92%; growth at 3 µM (IGROV-1): 95%; growth at 3 µM (OVCAR-3 [14]): 107%; growth at 30 µM (M14): -51%
